According to the supplement of paper PMC9663587:

Legend:
[1] = compound: T1, CCOc1cc2ncc(C#N)c(Nc3ccc(OCc4ccccn4)c(Cl)c3)c2cc1NC(=O)/C=C/CN(C)C [Neratinib/HKI272]; test: GR value, 72 h; higher = faster growth (1 = untreated, <0 = killing);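 further: breast cancer and non-malignant breast epithelial lines, nine half-log doses, viable cells counted by Hoechst and LIVE/DEAD dye imaging versus time-zero plates and DMSO controls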
[2] = compound: T2, CN1CC[C@H](c2c(O)cc(O)c3c(=O)cc(-c4ccccc4Cl)oc23)[C@H](O)C1 [Flavopiridol]; test: as above
[3] = compound: CN(C)C/C=C/C(=O)Nc1ccc(C(=O)N2CCC[C@@H](Nc3ncc(Cl)c(-c4c[nH]c5ccccc45)n3)C2)cc1 [THZ531]; test: increase in dead-cell fraction, 72 h; higher = more death;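 further: breast cancer cell lines in 384-well plates, stained with Hoechst plus LIVE/DEAD far red dye and imaged, cells above an LDR intensity threshold counted dead, Hoechst-negative corpses included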
[4] = compound: CC(=O)c1c(C)c2cnc(Nc3ccc(N4CCN(CCOCCOCCOCCNC(=O)COc5cccc6c5C(=O)N(C5CCC(=O)NC5=O)C6=O)CC4)cn3)nc2n(C2CCCC2)c1=O [BSJ-03-123]; test: as above
[5] = compound: CC(=O)c1c(C)c2cnc(Nc3ccc(N4CCNCC4)cn3)nc2n(C2CCCC2)c1=O; test: as above
[6] = compound: CCc1cnn2c(NCc3ccc[n+]([O-])c3)cc(N3CCCC[C@H]3CCO)nc12; test: as above
[7] = compound: T1, Neratinib/HKI272; test: as above
[8] = compound: C=CC(=O)Nc1ccc(C(=O)Nc2[nH]nc3c2CN(C(=O)N[C@H](CN(C)C)c2ccccc2)C3(C)C)cc1 [YKL-5-124]; test: as above
[9] = compound: CN(C)C/C=C/C(=O)Nc1ccc(C(=O)Nc2cccc(Nc3ncc(Cl)c(-c4c[nH]c5ccccc45)n3)c2)cc1 [THZ1]; test: as above
[10] = compound: CN(C)C(=O)c1cc2cnc(Nc3ccc(N4CCNCC4)cn3)nc2n1C1CCCC1 [LEE011/Ribociclib]; test: as above
[11] = compound: T2, Flavopiridol; test: as above
[12] = compound: CCN1CCN(Cc2ccc(Nc3ncc(F)c(-c4cc(F)c5nc(C)n(C(C)C)c5c4)n3)nc2)CC1; test: as above

Cell Line: MDAMB175VII
- GR value ([1]; 0.0003162 µM): 0.753 GR
- GR value ([1]; 0.001 µM): 0.53 GR
- GR value ([1]; 0.003162 µM): 0.138 GR
- GR value ([1]; 0.01 µM): -0.551 GR
- GR value ([1]; 0.03162 µM): -0.848 GR
- GR value ([1]; 0.1 µM): -0.905 GR
- GR value ([1]; 0.3162 µM): -0.932 GR
- GR value ([1]; 1 µM): -0.949 GR
- GR value ([1]; 3.162 µM): -0.983 GR
- GR value ([2]; 0.0001 µM): 0.962 GR
- GR value ([2]; 0.0003162 µM): 1 GR
- GR value ([2]; 0.001 µM): 0.765 GR
- GR value ([2]; 0.003162 µM): 0.721 GR
- GR value ([2]; 0.01 µM): 0.675 GR
- GR value ([2]; 0.03162 µM): 0.748 GR
- GR value ([2]; 0.1 µM): 0.442 GR
- GR value ([2]; 0.3162 µM): -0.175 GR
- GR value ([2]; 1 µM): -0.302 GR
- increase in dead-cell fraction ([3]; 0.0001 µM): 0.0053
- increase in dead-cell fraction ([3]; 0.0003162 µM): 0.0019
- increase in dead-cell fraction ([3]; 0.001 µM): 0.0075
- increase in dead-cell fraction ([3]; 0.003162 µM): 0.0041
- increase in dead-cell fraction ([3]; 0.01 µM): 0.0043
- increase in dead-cell fraction ([3]; 0.03162 µM): 0.0033
- increase in dead-cell fraction ([3]; 0.1 µM): 0.105
- increase in dead-cell fraction ([3]; 0.3162 µM): 0.231
- increase in dead-cell fraction ([3]; 1 µM): 0.0668
- increase in dead-cell fraction ([4]; 0.001 µM): 0.0049
- increase in dead-cell fraction ([4]; 0.003162 µM): 0.0003
- increase in dead-cell fraction ([4]; 0.01 µM): 0.0001
- increase in dead-cell fraction ([4]; 0.03162 µM): 0.0082
- increase in dead-cell fraction ([4]; 0.1 µM): 0.0009
- increase in dead-cell fraction ([4]; 0.3162 µM): 0.0035
- increase in dead-cell fraction ([4]; 1 µM): 0.0093
- increase in dead-cell fraction ([4]; 3.162 µM): 0.009
- increase in dead-cell fraction ([4]; 10 µM): 0.0139
- increase in dead-cell fraction ([5]; 0.0003162 µM): 0.0035
- increase in dead-cell fraction ([5]; 0.001 µM): 0.0034
- increase in dead-cell fraction ([5]; 0.003162 µM): -0.0018
- increase in dead-cell fraction ([5]; 0.01 µM): 0.0077
- increase in dead-cell fraction ([5]; 0.03162 µM): 0.0116
- increase in dead-cell fraction ([5]; 0.1 µM): 0.0214
- increase in dead-cell fraction ([5]; 0.3162 µM): 0.0115
- increase in dead-cell fraction ([5]; 1 µM): 0.0097
- increase in dead-cell fraction ([5]; 3.162 µM): 0.0212
- increase in dead-cell fraction ([6]; 0.0001 µM): -0.004
- increase in dead-cell fraction ([6]; 0.0003162 µM): -0.0015
- increase in dead-cell fraction ([6]; 0.001 µM): -0.0018
- increase in dead-cell fraction ([6]; 0.003162 µM): -0.0039
- increase in dead-cell fraction ([6]; 0.01 µM): 0.001
- increase in dead-cell fraction ([6]; 0.03162 µM): 0.116
- increase in dead-cell fraction ([6]; 0.1 µM): 0.0618
- increase in dead-cell fraction ([6]; 0.3162 µM): 0.0494
- increase in dead-cell fraction ([6]; 1 µM): 0.0562
- increase in dead-cell fraction ([7]; 0.0003162 µM): -0.0063
- increase in dead-cell fraction ([7]; 0.001 µM): -0.0069
- increase in dead-cell fraction ([7]; 0.003162 µM): 0.0132
- increase in dead-cell fraction ([7]; 0.01 µM): 0.0578
- increase in dead-cell fraction ([7]; 0.03162 µM): 0.214
- increase in dead-cell fraction ([7]; 0.1 µM): 0.276
- increase in dead-cell fraction ([7]; 0.3162 µM): 0.406
- increase in dead-cell fraction ([7]; 1 µM): 0.44
- increase in dead-cell fraction ([7]; 3.162 µM): 0.49
- increase in dead-cell fraction ([8]; 0.001 µM): 0.0167
- increase in dead-cell fraction ([8]; 0.003162 µM): 0.0032
- increase in dead-cell fraction ([8]; 0.01 µM): 0.0173
- increase in dead-cell fraction ([8]; 0.03162 µM): 0.0139
- increase in dead-cell fraction ([8]; 0.1 µM): 0.0095
- increase in dead-cell fraction ([8]; 0.3162 µM): 0.0149
- increase in dead-cell fraction ([8]; 1 µM): 0.0069
- increase in dead-cell fraction ([8]; 3.162 µM): 0.0133
- increase in dead-cell fraction ([8]; 10 µM): 0.285
- increase in dead-cell fraction ([9]; 0.0001 µM): 0.0012
- increase in dead-cell fraction ([9]; 0.0003162 µM): -0.0011
- increase in dead-cell fraction ([9]; 0.001 µM): -0.0032
- increase in dead-cell fraction ([9]; 0.003162 µM): -0.0005
- increase in dead-cell fraction ([9]; 0.01 µM): 0.0034
- increase in dead-cell fraction ([9]; 0.03162 µM): 0.0153
- increase in dead-cell fraction ([9]; 0.1 µM): 0.0349
- increase in dead-cell fraction ([9]; 0.3162 µM): 0.0573
- increase in dead-cell fraction ([9]; 1 µM): 0.0912
- increase in dead-cell fraction ([10]; 0.001 µM): 0.0066
- increase in dead-cell fraction ([10]; 0.003162 µM): 0.0124
- increase in dead-cell fraction ([10]; 0.01 µM): 0.0047
- increase in dead-cell fraction ([10]; 0.03162 µM): 0.0118
- increase in dead-cell fraction ([10]; 0.1 µM): 0.0182
- increase in dead-cell fraction ([10]; 0.3162 µM): 0.0102
- increase in dead-cell fraction ([10]; 1 µM): 0.0154
- increase in dead-cell fraction ([10]; 3.162 µM): 0.0181
- increase in dead-cell fraction ([10]; 10 µM): 0.0148
- increase in dead-cell fraction ([11]; 0.0001 µM): -0.0018
- increase in dead-cell fraction ([11]; 0.0003162 µM): -0.0019
- increase in dead-cell fraction ([11]; 0.001 µM): 0.0003
- increase in dead-cell fraction ([11]; 0.003162 µM): 0.0018
- increase in dead-cell fraction ([11]; 0.01 µM): 0.0067
- increase in dead-cell fraction ([11]; 0.03162 µM): -0.0026
- increase in dead-cell fraction ([11]; 0.1 µM): 0.0081
- increase in dead-cell fraction ([11]; 0.3162 µM): 0.0294
- increase in dead-cell fraction ([11]; 1 µM): 0.0685
- increase in dead-cell fraction ([12]; 0.001 µM): -0.0013
- increase in dead-cell fraction ([12]; 0.003162 µM): -0.0015
- increase in dead-cell fraction ([12]; 0.01 µM): 0.0094
- increase in dead-cell fraction ([12]; 0.03162 µM): 0.0188
- increase in dead-cell fraction ([12]; 0.1 µM): 0.0085
- increase in dead-cell fraction ([12]; 0.3162 µM): 0.013
- increase in dead-cell fraction ([12]; 1 µM): 0.0044
- increase in dead-cell fraction ([12]; 3.162 µM): 0.0131
- increase in dead-cell fraction ([12]; 10 µM): 0.0317
